In ChEMBL document CHEMBL5316327, “Design and Synthesis of Orally Active Quinolyl Pyrazinamides as Sigma 2 Receptor Ligands for the Treatment of Pancreatic Cancer” (J Med Chem, 2023):
Active and inactive are the calls of the source. No cut-off for these calls is given here.

Columns and labels:
[1] = molecular target: Sigma intracellular receptor 2 (Homo sapiens, UniProt Q5BJF2); assay: Displacement of [3H][…]ditolylguanidine from human sigma 2 receptor transfected in human HEK293T cells assessed as inhibition constant by radioligand competition binding assay; assay type: cell-based
Sequence of Sigma intracellular receptor 2 (Q5BJF2 whole entry): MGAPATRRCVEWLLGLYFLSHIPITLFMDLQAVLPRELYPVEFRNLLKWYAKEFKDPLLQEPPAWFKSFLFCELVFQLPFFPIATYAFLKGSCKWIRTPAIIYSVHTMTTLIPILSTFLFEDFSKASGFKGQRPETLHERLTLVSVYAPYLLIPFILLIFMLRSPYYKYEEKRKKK

[2] = molecular target: Muscarinic acetylcholine receptor M1 (Homo sapiens, UniProt P11229); assay: Binding affinity to M1 receptor (unknown origin) assessed as inhibition constant
Sequence of Muscarinic acetylcholine receptor M1 (P11229 whole entry): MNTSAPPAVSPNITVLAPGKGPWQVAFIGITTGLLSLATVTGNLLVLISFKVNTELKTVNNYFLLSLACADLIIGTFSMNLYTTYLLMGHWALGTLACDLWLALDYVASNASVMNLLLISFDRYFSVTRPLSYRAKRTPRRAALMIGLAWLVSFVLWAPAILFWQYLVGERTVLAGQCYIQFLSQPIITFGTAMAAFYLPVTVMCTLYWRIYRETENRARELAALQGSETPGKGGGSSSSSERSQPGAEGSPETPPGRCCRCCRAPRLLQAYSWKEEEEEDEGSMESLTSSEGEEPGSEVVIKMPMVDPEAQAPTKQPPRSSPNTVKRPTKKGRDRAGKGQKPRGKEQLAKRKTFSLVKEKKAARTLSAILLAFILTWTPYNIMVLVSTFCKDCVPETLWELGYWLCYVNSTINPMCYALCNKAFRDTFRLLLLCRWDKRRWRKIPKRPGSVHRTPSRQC

Histamine H2 receptor = Histamine H2 receptor (Homo sapiens, UniProt P25021); assay: Binding affinity to histamine H2 receptor (unknown origin) assessed as inhibition constant
Sequence of Histamine H2 receptor (P25021 whole entry): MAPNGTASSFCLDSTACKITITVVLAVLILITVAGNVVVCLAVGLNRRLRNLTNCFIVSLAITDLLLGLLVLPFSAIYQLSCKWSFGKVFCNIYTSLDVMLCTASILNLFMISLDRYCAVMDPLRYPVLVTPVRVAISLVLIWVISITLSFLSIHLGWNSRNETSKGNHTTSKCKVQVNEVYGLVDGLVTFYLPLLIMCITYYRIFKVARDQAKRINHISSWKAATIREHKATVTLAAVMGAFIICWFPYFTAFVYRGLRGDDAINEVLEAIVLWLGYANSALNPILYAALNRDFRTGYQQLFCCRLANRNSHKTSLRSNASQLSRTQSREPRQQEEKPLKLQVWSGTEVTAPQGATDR

Histamine H3 receptor = Histamine H3 receptor (Homo sapiens, UniProt Q9Y5N1); assay: Binding affinity to histamine H3 receptor (unknown origin) assessed as inhibition constant
Sequence of Histamine H3 receptor (Q9Y5N1 whole entry): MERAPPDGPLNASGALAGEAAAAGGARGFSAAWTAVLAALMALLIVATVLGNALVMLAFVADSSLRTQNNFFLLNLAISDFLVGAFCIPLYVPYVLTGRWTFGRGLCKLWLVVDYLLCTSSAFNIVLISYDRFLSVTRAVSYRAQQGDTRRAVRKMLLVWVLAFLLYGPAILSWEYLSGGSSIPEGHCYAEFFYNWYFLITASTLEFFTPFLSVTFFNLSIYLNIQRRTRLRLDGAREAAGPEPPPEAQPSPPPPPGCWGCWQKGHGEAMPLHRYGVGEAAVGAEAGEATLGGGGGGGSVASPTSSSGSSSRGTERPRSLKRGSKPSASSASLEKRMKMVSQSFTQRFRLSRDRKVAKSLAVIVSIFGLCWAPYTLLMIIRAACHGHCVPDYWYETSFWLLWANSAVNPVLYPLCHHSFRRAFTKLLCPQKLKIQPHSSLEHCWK

[3] = molecular target: Alpha-2A adrenergic receptor (Homo sapiens, UniProt P08913); assay: Binding affinity to alpha2A receptor (unknown origin) assessed as inhibition constant
Sequence of Alpha-2A adrenergic receptor (P08913 whole entry): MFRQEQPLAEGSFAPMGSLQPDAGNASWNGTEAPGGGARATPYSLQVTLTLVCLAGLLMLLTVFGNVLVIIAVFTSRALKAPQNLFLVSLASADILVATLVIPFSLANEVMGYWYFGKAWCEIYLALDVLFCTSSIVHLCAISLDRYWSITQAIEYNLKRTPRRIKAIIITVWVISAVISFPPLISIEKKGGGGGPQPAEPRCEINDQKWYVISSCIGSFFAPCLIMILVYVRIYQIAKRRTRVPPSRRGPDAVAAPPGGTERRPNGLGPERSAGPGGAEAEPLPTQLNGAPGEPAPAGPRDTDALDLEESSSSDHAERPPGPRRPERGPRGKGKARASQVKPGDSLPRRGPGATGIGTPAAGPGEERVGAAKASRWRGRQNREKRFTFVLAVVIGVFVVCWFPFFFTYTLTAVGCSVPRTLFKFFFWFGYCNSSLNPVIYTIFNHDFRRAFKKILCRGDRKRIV

MIA PaCa-2 [4] = assay: Induction of apoptosis in human MIA PaCa-2 cells assessed as early apoptotic cells at 1.0 uM measured after 48 hrs by Annexin V-Alexa Fluor 488/propidium iodide staining based flow cytometry (reference value: 4.11%); assay type: functional
MIA PaCa-2 [5] = assay: Induction of apoptosis in human MIA PaCa-2 cells assessed as late apoptotic cells at 5.0 uM measured after 48 hrs by Annexin V-Alexa Fluor 488/propidium iodide staining based flow cytometry (reference value: 6.63%); assay type: functional
MIA PaCa-2 [6] = assay: Induction of apoptosis in human MIA PaCa-2 cells assessed as late apoptotic cells at 10.0 uM measured after 48 hrs by Annexin V-Alexa Fluor 488/propidium iodide staining based flow cytometry (reference value: 6.63%); assay type: functional
MIA PaCa-2 [7] = assay: Induction of apoptosis in human MIA PaCa-2 cells assessed as necrotic cells at […] measured after 48 hrs by Annexin V-Alexa Fluor 488/propidium iodide staining based flow cytometry (reference value: 7.03%); assay type: functional; settings: dose 2.5 µM
HCT-116 [8] = assay: Induction of apoptosis in human HCT-116 cells assessed as viable cells at […] measured after 48 hrs by Annexin V-Alexa Fluor 488/propidium iodide staining based flow cytometry (reference value: 79.69%); assay type: functional; settings: dose 2.5 µM, read-out: Activity
HCT-116 [9] = assay: Induction of apoptosis in human HCT-116 cells assessed as early apoptotic cells at […] measured after 48 hrs by Annexin V-Alexa Fluor 488/propidium iodide staining based flow cytometry (reference value: 2.77%); assay type: functional; settings: dose 2.5 µM
HCT-116 [10] = assay: Induction of apoptosis in human HCT-116 cells assessed as late apoptotic cells at 5.0 uM measured after 48 hrs by Annexin V-Alexa Fluor 488/propidium iodide staining based flow cytometry (reference value: 8.48%); assay type: functional
MIA PaCa-2 [11] = assay: Induction of cell cycle arrest in human MIA PaCa-2 cells assessed as accumulation of cells in G0/G1 phase at 10 uM measured after 24 hrs by propidium iodide staining-based flow cytometric analysis (reference value: 53%); assay type: functional
MIA PaCa-2 [12] = assay: Induction of cell cycle arrest in human MIA PaCa-2 cells assessed as accumulation of cells in S phase at 1 uM measured after 24 hrs by propidium iodide staining-based flow cytometric analysis (reference value: 31%); assay type: functional
MIA PaCa-2 [13] = assay: Induction of cell cycle arrest in human MIA PaCa-2 cells assessed as accumulation of cells in S phase at […] measured after 24 hrs by propidium iodide staining-based flow cytometric analysis (reference value: 31%); assay type: functional; settings: dose 2.5 µM
MIA PaCa-2 [14] = assay: Induction of cell cycle arrest in human MIA PaCa-2 cells assessed as accumulation of cells in S phase at 5 uM measured after 24 hrs by propidium iodide staining-based flow cytometric analysis (reference value: 31%); assay type: functional
MIA PaCa-2 [15] = assay: Induction of cell cycle arrest in human MIA PaCa-2 cells assessed as accumulation of cells in G2/M phase at 1 uM measured after 24 hrs by propidium iodide staining-based flow cytometric analysis (reference value: 16%); assay type: functional
MIA PaCa-2 [16] = assay: Induction of cell cycle arrest in human MIA PaCa-2 cells assessed as accumulation of cells in G2/M phase at 10 uM measured after 24 hrs by propidium iodide staining-based flow cytometric analysis (reference value: 16%); assay type: functional
HCT-116 [17] = assay: Induction of cell cycle arrest in human HCT-116 cells assessed as accumulation of cells in G0/G1 phase at 1 uM measured after 24 hrs by propidium iodide staining-based flow cytometric analysis (reference value: 43%); assay type: functional
HCT-116 [18] = assay: Induction of cell cycle arrest in human HCT-116 cells assessed as accumulation of cells in S phase at 1 uM measured after 24 hrs by propidium iodide staining-based flow cytometric analysis (reference value: 47%); assay type: functional
HCT-116 [19] = assay: Induction of cell cycle arrest in human HCT-116 cells assessed as accumulation of cells in S phase at […] measured after 24 hrs by propidium iodide staining-based flow cytometric analysis (reference value: 47%); assay type: functional; settings: dose 2.5 µM
HCT-116 [20] = assay: Induction of cell cycle arrest in human HCT-116 cells assessed as accumulation of cells in S phase at 10 uM measured after 24 hrs by propidium iodide staining-based flow cytometric analysis (reference value: 47%); assay type: functional
[21] = AUC (0 to time of last detectable concentration) in CD-1 mouse plasma at 10 mg/kg, iv; assay type: ADME, organism-based; set-up: dose 10 mg/kg, route iv
[22] = AUC (0 to infinity) in CD-1 mouse plasma at 20 mg/kg, po; assay type: ADME, organism-based; set-up: dose 20 mg/kg, route po
[23] = Apparent oral clearance in CD-1 mouse plasma at 20 mg/kg, po; assay type: ADME, organism-based
[24] = Toxicity in C57BL/6 mouse assessed as effect on body weight at 30 mg/kg, po measured upto 32 days in presence of copper sulfate; assay type: organism-based; settings: in vivo, 768 h, time < 32 day
[25] = Toxicity in C57BL/6 mouse assessed as effect on body weight at 30 mg/kg, po administered for 32 days and measured on day 1 to 3,5,6,8 to 32 in presence of copper sulfate; assay type: organism-based; settings: in vivo, 768 h, time 32 day
MIA PaCa-2 [26] = assay: Additive cytotoxicity against human MIA PaCa-2 cells at upto 1 uM measured after 7 days in presence of ammonium tetrathiomolybdate by crystal violet staining based analysis; assay type: functional, cell-based; settings: time 7.0 day
MIA PaCa-2 [27] = assay: Upregulation of LC3-B expression in human MIA-PaCa-2 cells measured after 72 hrs; assay type: functional, cell-based; settings: dose 1-5 µM
MIA PaCa-2 [28] = assay: Additive ferroptosis activity in human MIA-PaCa-2 cells at upto 1 uM measured after 7 days in presence of ferrostatin-1 by crystal violet staining based analysis; assay type: functional, cell-based; settings: time 7.0 day
MIA PaCa-2 [29] = assay: Additive ferroptosis activity in human MIA-PaCa-2 cells at upto 1 uM measured after 7 days in presence of FIN56 by crystal violet staining based analysis; assay type: functional, cell-based; settings: time 7.0 day
MIA PaCa-2 [30] = assay: Synergistic ferroptosis activity in human MIA-PaCa-2 cells at upto 1 uM measured after 7 days in presence of erastin by crystal violet staining based analysis; assay type: functional, cell-based; settings: time 7.0 day
MIA PaCa-2 [31] = assay: Synergistic cytotoxicity in human MIA PaCa-2 cells at upto 1 uM measured after 7 days in presence of gemcitabine by crystal violet staining based analysis; assay type: functional, cell-based; settings: time 7.0 day
MIA PaCa-2 [32] = assay: Synergistic cytotoxicity in human MIA PaCa-2 cells at upto 1 uM measured after 7 days in presence of paclitaxel by crystal violet staining based analysis; assay type: functional, cell-based; settings: time 7.0 day
[33] = Solubility of the compound; assay type: physicochemical
cells = settings: Mus musculus, KPC2, 72 h

CCN(CC)CCCC(C)Nc1cnc(C(=O)Nc2ccc(Cl)c3cccnc23)cn1 (stereo unspecified)
Ki [1]: 0.047 µM
Ki [2]: 4.2 µM
Ki (Histamine H2 receptor): 91.1 µM
Ki (Histamine H3 receptor): 1.18 µM
Ki [3]: 2.74 µM
Activity (MIA PaCa-2 [4]): 11.44%
Activity (MIA PaCa-2 [5]): 40.03%
Activity (MIA PaCa-2 [6]): 53.96%
Activity (MIA PaCa-2 [7]): 5.91%
viability at […] (HCT-116 [8]): 68.1%
Activity (HCT-116 [9]): 8.77%
Activity (HCT-116 [10]): 18.39%
Activity (MIA PaCa-2 [11]): 69%
Activity (MIA PaCa-2 [12]): 40%
Activity (MIA PaCa-2 [13]): 35%
Activity (MIA PaCa-2 [14]): 22%
Activity (MIA PaCa-2 [15]): 13%
Activity (MIA PaCa-2 [16]): 17%
Activity (HCT-116 [17]): 41%
Activity (HCT-116 [18]): 34%
Activity (HCT-116 [19]): 33%
Activity (HCT-116 [20]): 20%
AUC [21]: 2600 ng·h/mL
AUC(0-inf) [22]: 3390 ng·h/mL
CL/F [23]: 98.3 mL/min/kg
Activity [24]: Non-Toxic
Activity [25]: Non-Toxic
Activity (MIA PaCa-2 [26]): inactive
Activity (MIA PaCa-2 [27]): Dose-Dependent Effect
Activity (MIA PaCa-2 [28]): Active
Activity (MIA PaCa-2 [29]): Active
Activity (MIA PaCa-2 [30]): Active
Activity (MIA PaCa-2 [31]): inactive
Activity (MIA PaCa-2 [32]): inactive
solubility [33]: > 5000 µg/mL
IC50 (cells): 2.7 µM
